Where “and” joins values, the source holds several entries; their conditions need not be identical. Equal entries are not always repeated. Where two headings read alike, the source gives them in different places.
Legend:
[1] = target: T1, tumor T-L activity (A549 tumors) (Homo sapiens, UniProt Q99436); assay: Proteasome activity in A549 tumor lysates after in vivo treatment; design: species or system nude mice; details: mouse, ip; A549 tumors extracted 2 hours after last i.p. injection (1 mpk), vs DMSO-treated controls
T1 construct: from tissue; host or cells: A549 human lung tumour xenografts grown in nude mice
Description: (§3) To determine proteasome activity in whole cell extracts from cultured cells (5 μg) or tumor and liver tissue extracts (30 μg) from nude mice, the same assay was used except that the buffer was changed to 20 mM HEPES, 0.5 mM EDTA, pH 8.0.
(§4) Whole cell extracts were prepared as follows: Cells were harvested, washed with PBS twice, and homogenized in a lysis buffer (50 mM Tris-HCl, pH 8.0, 5 mM EDTA, 150 mM NaCl, 0.5% NP-40) for 30 min at 4° C. Cell extracts from tumors and livers of nude mice were prepared in 50 mM HEPES, 0.5 mM EDTA, pH 8.0. Cell lysates were centrifuged at 12,000 g for 15 min, and the supernatants were collected as whole cell extracts.
(§5) Nude mice (Charles River Laboratories, Wilmington, Mass.) were maintained and treated in accordance with the Institutional Animal Care and Use Committee procedures and guidelines. […] Exponentially growing MCF-7 and A549 cells were harvested via trypsinization, pelleted at 300 g for 5 minutes, resuspended in sterile PBS (Invitrogen) at 10^7 cells per 100 μl, and injected into each flank of mice. The tumor xenografts were monitored with an electronic caliper every other day for 16 days. Tumor volume was calculated using the formula V=W^2L, where width is the largest diameter and length is the smallest diameter. When the tumors reached ˜200 mm^3, the animals were randomized and treatment schedules were implemented. […]

[2] = system: MCF-7 breast cancer cells; assay: MTT metabolism assay; format: cell-based, human; details: Homo sapiens
Description: (§1) Cells were plated in 96-well plates in 100 μl medium and allowed to attach overnight. […] Media was aspirated after 24 or 72 hours and replaced with 100 μl complete media containing 1 mg/ml MTT and incubated for three hours at 37° C. in 5% CO2 humidified incubator. Media was then aspirated and DMSO was added. Cells were incubated for 10 min at room temperature while shaking, and the absorbance was determined at 540 nm using a μQuant spectrophotometric plate reader (Bio-TEK, Winooski, Vt.).
Cells were plated in 96-well plates in 100 μl medium and allowed to attach overnight. Cells were then incubated for 72 h with varying concentrations of PI-083, YG1-080, YG1-075, HL2-090-2, HL2-090-4, HL2-090-6, and HL2-090-9 or vehicle control (DMSO). Media was aspirated and replaced with 100 μl complete media containing 1 mg/ml MTT and incubated for three hours at 37° C. in 5% CO2 humidified incubator. Media was then aspirated and DMSO was added. Cells were incubated for 10 min at room temperature while shaking, and the absorbance was determined at 540 nm using a μQuant spectrophotometric plate reader (Bio-TEK, Winooski, Vt.).

[3] = system: A549 lung cancer xenografts; assay: Antitumor study of human tumor xenografts in nude mice (A549); format: in vivo; details: 1 mpk i.p. 2× weekly; for average tumor size of A549-derived xenografts: start at about 200 mm^3
Description: (§6) Nude mice (Charles River Laboratories, Wilmington, Mass.) were maintained and treated in accordance with the Institutional Animal Care and Use Committee procedures and guidelines. Seven days before inoculation with MCF-7 cells, the animals were fully anesthetized for subcutaneous implantation of estradiol pellets (0.25 mg per pellet, 60-day release; Innovative Research of America, Sarasota, Fla.) on the dorsal surface of mice. Exponentially growing MCF-7 and A549 cells were harvested via trypsinization, pelleted at 300 g for 5 minutes, resuspended in sterile PBS (Invitrogen) at 10^7 cells per 100 μl, and injected into each flank of mice. The tumor xenografts were monitored with an electronic caliper every other day for 16 days. Tumor volume was calculated using the formula V=W^2L, where width is the largest diameter and length is the smallest diameter. When the tumors reached ˜200 mm^3, the animals were randomized and treatment schedules were implemented. […] 2 hours after the last injections animals were sacrificed via CO2 inhalation, and then tumors and livers were harvested and snap frozen in liquid N2.

[4] = system: primary multiple myeloma cells isolated from patients' bone marrow; assay: Viability of primary multiple myeloma cells (MTT assay); format: cell-based, human
Description: (§2) MM patients' bone marrow samples were collected from Liquid Tissue Bank facility. Freshly isolated bone marrow samples were fractionated by Ficoll-Paque (Pharmacia Biotech, Piscataway, N.J.) sedimentation. The mononuclear cellular layer was then resuspended in RPMI-1640 containing 10% heat-inactivated fetal bovine serum, 10 mM HEPES (pH 7.4), sodium pyruvate, L-glutamine, and 1% penicillin-streptomycin.
Cells were plated in 96-well plates in 100 μl medium and allowed to attach overnight. […] […] Media was then aspirated and DMSO was added. Cells were incubated for 10 min at room temperature while shaking, and the absorbance was determined at 540 nm using a μQuant spectrophotometric plate reader (Bio-TEK, Winooski, Vt.).

[5] = system: HPDE6-C7 (C7) pancreatic epithelial cells; assay: MTT metabolism assay; format: cell-based; details: Homo sapiens, HPDE6c7, mean ± SD of 3 to 5 experiments, read-out: IC50 for cell viability measured by MTT assay
Description: as §1

CaLu-1 lung cancer cells = assay: MTT metabolism assay; format: cell-based; details: Homo sapiens, mean ± SD of 3 to 5 experiments, read-out: IC50 for cell viability measured by MTT assay
Description: as §1

[6] = system: DU-145 prostate cancer cells; assay: MTT metabolism assay; format: cell-based; details: Homo sapiens, read-out: IC50 for cell viability measured by MTT assay
Description: as §1

[7] = system: MCF-10A breast epithelial cells; assay: MTT metabolism assay; format: cell-based; details: Homo sapiens, mean ± SD of 3 to 5 experiments, read-out: IC50 for cell viability measured by MTT assay
Description: as §1

[8] = system: LNCaP prostate cancer cells; assay: MTT metabolism assay; format: cell-based; details: Homo sapiens, mean ± SD of 3 to 5 experiments, read-out: IC50 for cell viability measured by MTT assay
Description: as §1

[9] = system: RPMI-8226 multiple myeloma cells; assay: MTT metabolism assay; format: cell-based; details: Homo sapiens, mean ± SD of 3 to 5 experiments, read-out: IC50 for cell viability measured by MTT assay
Description: as §1

A549 lung cancer cells = assay: MTT metabolism assay; format: cell-based; details: Homo sapiens, mean ± SD of 3 to 5 experiments, read-out: IC50 for cell viability measured by MTT assay
Description: as §1

[10] = system: T80-Hras ovarian cancer cells; assay: MTT metabolism assay; format: cell-based; details: Homo sapiens, mean ± SD of 3 to 5 experiments, read-out: IC50 for cell viability measured by MTT assay
[11] = system: MCF-7 breast cancer xenografts; assay: Antitumor study of human tumor xenografts in nude mice (MCF-7); format: in vivo; details: 1 mpk i.p. 2× weekly; for average tumor size of MCF-7 derived xenografts: start at about 200 mm^3
Description: as §6

[12] = target: tumor PGPH activity (A549 tumors) (Homo sapiens, UniProt P28072); assay: Proteasome activity in A549 tumor lysates after in vivo treatment
Description: as §3, §4, §5

[13] = target: T2, hepatic CT-L, T-L, and PGPH activities (Mus musculus, UniProt O09061+O55234+P70195+Q60692); assay: Proteasome activities in livers of tumor-bearing mice after in vivo treatment; design: species or system nude mice; details: livers extracted 2 hours after last i.p. injection (1 mpk)
T2 construct: from tissue; host or cells: liver of tumour-bearing nude mice (Charles River)
Description: as §3, §4, §5

[14] = target: T3, tumor CT-L activity (A549 tumors) (Homo sapiens, UniProt P20618+P28074); assay: Proteasome activity in A549 tumor lysates after in vivo treatment; design: species or system nude mice; details: mouse, ip; A549 tumors extracted 2 hours after last i.p. injection (1 mpk), vs DMSO-treated controls
T3 construct: from tissue; host or cells: A549 human lung tumour xenografts grown in nude mice
Description: as §3, §4, §5

[15] = system: primary multiple myeloma cells isolated from patients' bone marrow; assay: Proliferation of primary multiple myeloma cells (Trypan blue); format: cell-based, human; details: primary MM cells, 24 h treatment, Table 5: one value per patient, mean over patients
Description: as §2
Adherent cells were harvested using trypsinization and pooled with suspension cells from media supernatant by pelleting at 300 g for 5 min at 4° C. The cells were then resuspended in an appropriate volume of media by pipetting gently up and down. Two 20 μl aliquots were removed and combined with an equal volume of 0.4% Trypan blue and allowed to mix for 1 minute. A 10 μl volume was loaded onto a hemacytometer and cells were scored as live or dead based on Trypan blue dye exclusion and the percentage of dead cell number to total cell number was calculated. To calculate the percentage of proliferation, the number of live cells in the treated samples was divided by the number of live cells in the untreated vehicle control.

[16] = MCF7, 24 h, MCF-7, 24 h, mean ± SD of 3 to 5 experiments, read-out: IC50 for cell viability measured by MTT assay
[17] = MCF7, 72 h, MCF-7, 72 h, mean ± SD of 3 to 5 experiments (Table 3), read-out: IC50 for cell viability measured by MTT assay
[18] = read-out: Viability 24 h (IC50 values), primary MM cells, 24 h, Table 5: one value per patient, mean over patients
[19] = read-out: Proliferation 24 h (IC50 values)

| SMILES | inhibition at 1 mg/kg [1] [%] | IC50 [2, 16] [nM] | IC50 [2, 17] [nM] | average tumor size of A549-derived xenografts [3] | IC50 [4, 18] | IC50 ([5]; C7, 24 h) [nM] | IC50 ([5]; C7, 72 h) [nM] | IC50 (CaLu-1 lung cancer cells; CaLu-1, 24 h) [nM] | IC50 (CaLu-1 lung cancer cells; CaLu-1, 72 h) [nM] | IC50 ([6]; DU-145, 24 h) [nM] | IC50 ([6]; DU-145, 72 h) [nM] | IC50 ([7]; 24 h) [nM] | IC50 ([7]; 72 h) [nM] | IC50 ([8]; 24 h) [nM] | IC50 ([8]; 72 h) [nM] | IC50 ([9]; RPMI-8226, 24 h) [nM] | IC50 ([9]; RPMI-8226, 72 h) [nM] | IC50 (A549 lung cancer cells; A549, 24 h) [nM] | IC50 (A549 lung cancer cells; A549, 72 h) [nM] | IC50 ([10]; 24 h) [nM] | further results |
| --- | --- | --- | --- | --- | --- | --- | --- | --- | --- | --- | --- | --- | --- | --- | --- | --- | --- | --- | --- | --- | --- |
| CC(C)C[C@H](NC(=O)[C@H](Cc1ccccc1)NC(=O)c1cnccn1)B(O)O [Bortezomib, reference compound] | 0 | > 30000 | 8600 ± 1410 | 864±207 mm^3 | 190 nM and 280 nM | > 30000 | 32 ± 1 | > 30000 | 22 ± 2 | > 30000 | 25 ± 2 | > 30000 | 150 ± 74 | > 30000 | 57 ± 4 | 49 ± 25 | 26 ± 3 | > 30000 | 410 ± 70 | > 30000 | IC50 ([4]; primary MM cells, 48 h, Table 5: one value per patient, b176: mean over patients, listed as bortezomib, read-out: Viability 48 h (IC50 values)): 140 ± 80 nM; IC50 ([4]; read-out: Viability 72 h (IC50 values), primary MM cells, 72 h, Table 5: one value per patient, b176: mean over patients, listed as bortezomib): 46 ± 8 nM; antitumor effect in MCF-7 xenografts, in words [11]: appeared to be ineffective in the nude mouse model; average tumor size of MCF-7 derived xenografts [11]: 1,448±145 mm^3; inhibition of tumor PGPH activity ([12]; A549 tumors extracted 2 hours after last i.p. injection (1 mpk), vs DMSO-treated controls): 68%; effect on proteasome activities in livers of tumor-bearing mice [13]: significantly inhibited hepatic CT-L, T-L, and PGPH activities; inhibition at 1 mg/kg [14]: 70%; IC50 ([15]; Homo sapiens, Multiple myeloma cell, read-out: Proliferation 24 h (IC50 values, μM)): > 10 µM; IC50 [15, 19]: > 10 µM |
| O=C1C(Cl)=C(Nc2ccc(S(=O)(=O)Nc3ccccn3)cc2)C(=O)c2ccccc21 [PI-083, 4-(3-chloro-1,4-dioxo-1,4-dihydronaphthalen-2-ylamino)-N-(pyridin-2-yl)benzenesulfonamide] | 12 | 4500 ± 820 | 2200 ± 1100 | about 511±134 mm^3 | > 10000 nM and 2200 nM and 3400 nM and 1800 nM and 2000 nM | 5100 ± 530 | 4200 ± 1600 | 7300 ± 430 | 4900 ± 1200 | 8600 ± 630 | 5000 ± 720 | 17000 ± 860 | 4200 ± 2100 | 14000 ± 2800 | 5200 ± 1100 | 7400 ± 380 | 10000 ± 4000 | 41000 ± 17000 | 11000 ± 6700 | 1500 ± 570 | IC50 ([2]; MCF7, 72 h, MCF-7, 72 h (Table 6), read-out: IC50 for cell viability measured by MTT assay in MCF-7 human breast cancer cells): 2310 ± 100 nM; tumor growth inhibition, A549 xenografts [3]: 54%; IC50 ([4]; primary MM cells, 48 h, Table 5: one value per patient, b176: mean over patients, read-out: Viability 48 h (IC50 values)): 1790 nM and 2600 nM and 3600 nM and 900 nM and 1500 nM; IC50 ([4]; read-out: Viability 72 h (IC50 values), primary MM cells, 72 h, Table 5: one value per patient, b176: mean over patients): 1600 nM and 2200 nM and 2600 nM and 1300 nM and 1800 nM and 350 nM; IC50 ([10]; 72 h): 2100 ± 400 nM; tumor growth inhibition, MCF-7 xenografts [11]: 84%; average tumor size of MCF-7 derived xenografts [11]: about 396±137 mm^3; inhibition at 1 mg/kg ([12]; A549, mouse, ip, read-out: inhibition of tumor PGPH activity): 34%; effect on proteasome activities in livers of tumor-bearing mice [13]: did not inhibit liver proteasome activities; inhibition at 1 mg/kg [14]: 43%; IC50 [15, 19]: 6.6 µM and 1.3 µM and 2.2 µM and 2.6 µM and 1.7 µM and 2.8 µM and 10 µM and 5 µM and 2.9 µM |

— patent publication US8673910B2, “Proteasome inhibitors for selectively inducing apoptosis in cancer cells” (H. Lee Moffitt Cancer Center and Research Institute, priority 2008, dated 2014)
